Assay results: ChEMBL document CHEMBL3112450, “Synthesis and in vitro antitumor evaluation of primary amine substituted quinazoline linked benzimidazole” (Bioorg Med Chem Lett, 2014)

How the values were obtained:
Type in all cases: functional
NCI-H522 = assay: Cytotoxicity against human NCI-H522 cells after 48 hrs by SRB assay; conditions: NCI-H522, 48 h
NCI-H460 [1] = assay: Cytotoxicity against human NCI-H460 cells after 48 hrs by SRB assay; conditions: NCI-H460, 48 h
UACC-62 = assay: Cytotoxicity against human UACC62 cells assessed as cell growth at 10^-6 M after 48 hrs by SRB assay; conditions: UACC-62, 48 h, read-out: Activity
DU-145 = assay: Cytotoxicity against human DU145 cells assessed as cell growth at 10^-4 M after 48 hrs by SRB assay; conditions: DU-145, 48 h, read-out: Activity
SK-MEL-5 [2] = assay: Cytotoxicity against human SK-MEL-5 cells assessed as cell growth at 10^-6 M after 48 hrs by SRB assay; conditions: SK-MEL-5, 48 h, read-out: Activity
[3] = Cytotoxicity against human UO31 cells assessed as cell growth at 10^-7 M after 48 hrs by SRB assay; conditions: UO-31, 48 h, read-out: Activity
HOP-92 [4] = assay: Cytotoxicity against human HOP92 cells assessed as cell growth at 10^-4 M after 48 hrs by SRB assay; conditions: HOP-92, 48 h, read-out: Activity
MDA-MB-468 = assay: Cytotoxicity against human MDA-MB-468 cells after 48 hrs by SRB assay; conditions: MDA-MB-468, 48 h
IGROV-1 = assay: Cytotoxicity against human IGROV1 cells assessed as cell growth at 10^-6 M after 48 hrs by SRB assay; conditions: IGROV-1, 48 h, read-out: Activity
SN12C [5] = assay: Cytotoxicity against human SN12C cells assessed as cell growth at 10^-6 M after 48 hrs by SRB assay; conditions: read-out: Activity
HL-60(TB) = assay: Cytotoxicity against human HL-60(TB) cells after 48 hrs by SRB assay; conditions: HL-60, 48 h
BT-549 = assay: Cytotoxicity against human BT549 cells assessed as cell growth at 10^-6 M after 48 hrs by SRB assay; conditions: BT-549, 48 h, read-out: Activity
SK-MEL-5 [6] = assay: Cytotoxicity against human SK-MEL-5 cells assessed as cell growth at 10^-8 M after 48 hrs by SRB assay; conditions: SK-MEL-5, 48 h, read-out: Activity
SK-MEL-5 [7] = assay: Cytotoxicity against human SK-MEL-5 cells assessed as cell growth at 10^-7 M after 48 hrs by SRB assay; conditions: SK-MEL-5, 48 h, read-out: Activity
COLO 205 = assay: Cytotoxicity against human COLO205 cells assessed as cell growth at 10^-7 M after 48 hrs by SRB assay; conditions: COLO 205, 48 h, read-out: Activity
NCI-H460 [8] = assay: Cytotoxicity against human NCI-H460 cells assessed as cell growth at 10^-4 M after 48 hrs by SRB assay; conditions: NCI-H460, 48 h, read-out: Activity
PC-3 [9] = assay: Cytotoxicity against human PC3 cells assessed as cell growth at 10^-8 M after 48 hrs by SRB assay; conditions: PC-3, 48 h, read-out: Activity
T47D = assay: Cytotoxicity against human T47D cells assessed as cell growth at 10^-6 M after 48 hrs by SRB assay; conditions: read-out: Activity
HOP-92 [10] = assay: Cytotoxicity against human HOP92 cells after 48 hrs by SRB assay; conditions: HOP-92, 48 h
HCT-15 = assay: Cytotoxicity against human HCT15 cells assessed as cell growth at 10^-6 M after 48 hrs by SRB assay; conditions: HCT-15, 48 h, read-out: Activity
SN12C [11] = assay: Cytotoxicity against human SN12C cells assessed as cell growth at 10^-7 M after 48 hrs by SRB assay; conditions: read-out: Activity
SK-OV-3 = assay: Cytotoxicity against human SKOV3 cells assessed as cell growth at 10^-7 M after 48 hrs by SRB assay; conditions: SK-OV-3, 48 h, read-out: Activity
KM12 [12] = assay: Cytotoxicity against human KM12 cells assessed as cell growth at 10^-8 M after 48 hrs by SRB assay; conditions: KM12, 48 h, read-out: Activity
PC-3 [13] = assay: Cytotoxicity against human PC3 cells assessed as cell growth at 10^-6 M after 48 hrs by SRB assay; conditions: PC-3, 48 h, read-out: Activity
MOLT-4 [14] = assay: Cytotoxicity against human MOLT4 cells after 48 hrs by SRB assay; conditions: MOLT-4, 48 h
Malme-3M = assay: Cytotoxicity against human MALME-3M cells assessed as cell growth at 10^-6 M after 48 hrs by SRB assay; conditions: read-out: Activity
SW-620 = assay: Cytotoxicity against human SW620 cells assessed as cell growth at 10^-6 M after 48 hrs by SRB assay; conditions: SW-620, 48 h, read-out: Activity
OVCAR-8 = assay: Cytotoxicity against human OVCAR8 cells assessed as cell growth at 10^-6 M after 48 hrs by SRB assay; conditions: OVCAR-8, 48 h, read-out: Activity
HCC 2998 = assay: Cytotoxicity against human HCC2998 cells after 48 hrs by SRB assay; conditions: HCC 2998, 48 h
MDA-MB-435 = assay: Cytotoxicity against human MDA-MB-435 cells assessed as cell growth at 10^-8 M after 48 hrs by SRB assay; conditions: MDA-MB-435, 48 h, read-out: Activity
HCT-116 [15] = assay: Cytotoxicity against human HCT116 cells after 48 hrs by SRB assay; conditions: HCT-116, 48 h
SK-MEL-2 = assay: Cytotoxicity against human SK-MEL-2 cells assessed as cell growth at 10^-4 M after 48 hrs by SRB assay; conditions: SK-MEL-2, 48 h, read-out: Activity
MOLT-4 [16] = assay: Cytotoxicity against human MOLT4 cells assessed as cell growth at 10^-8 M after 48 hrs by SRB assay; conditions: MOLT-4, 48 h, read-out: Activity
NCI-H23 = assay: Cytotoxicity against human NCI-H23 cells assessed as cell growth at 10^-4 M after 48 hrs by SRB assay; conditions: NCI-H23, 48 h, read-out: Activity
CCRF-CEM = assay: Cytotoxicity against human CCRF-CEM cells assessed as cell growth at 10^-6 M after 48 hrs by SRB assay; conditions: read-out: Activity
A498 = assay: Cytotoxicity against human A498 cells after 48 hrs by SRB assay; conditions: A498, 48 h
KM12 [17] = assay: Cytotoxicity against human KM12 cells assessed as cell growth at 10^-6 M after 48 hrs by SRB assay; conditions: KM12, 48 h, read-out: Activity
HCT-116 [18] = assay: Cytotoxicity against human HCT116 cells assessed as cell growth at 10^-8 M after 48 hrs by SRB assay; conditions: HCT-116, 48 h, read-out: Activity

C=CCn1c(C)nc2ccc(Nc3nc(Nc4ccc(F)cc4)nc4ccccc34)cc21
GI50 (NCI-H522): 3.12 µM | TGI (NCI-H522): 13.4 µM | CC50 (NCI-H522; read-out: LC50 (the source's name)): 75.5 µM | GI50 (NCI-H460 [1]): 3.11 µM | LC50 (concentration killing 50% of cells) (NCI-H460 [1]): 83.9 µM | TGI (NCI-H460 [1]): 14.5 µM | growth at 1 µM (UACC-62): 91% | growth at 100 µM (DU-145): -84% | growth at 1 µM (SK-MEL-5 [2]): 73% | growth at 0.1 µM [3]: 86% | growth at 100 µM (HOP-92 [4]): -84% | GI50 (MDA-MB-468): 1.23 µM | TGI (MDA-MB-468): 2.6 µM | growth at 1 µM (IGROV-1): 91% | growth at 1 µM (SN12C [5]): 81% | GI50 (HL-60(TB)): 4.95 µM | LC50 (HL-60(TB)): > 100 µM | TGI (HL-60(TB)): 23.3 µM | growth at 1 µM (BT-549): 82% | growth at 0.01 µM (SK-MEL-5 [6]): 92% | growth at 0.1 µM (SK-MEL-5 [7]): 93% | growth at 0.1 µM (COLO 205): 103% | growth at 100 µM (NCI-H460 [8]): -55% | growth at 0.01 µM (PC-3 [9]): 98% | growth at 1 µM (T47D): 79% | GI50 (HOP-92 [10]): 0.585 µM | LC50 (HOP-92 [10]): 36.2 µM | TGI (HOP-92 [10]): 6.97 µM | growth at 1 µM (HCT-15): 91% | growth at 0.1 µM (SN12C [11]): 96% | growth at 0.1 µM (SK-OV-3): 112% | growth at 0.01 µM (KM12 [12]): 95% | growth at 1 µM (PC-3 [13]): 84% | GI50 (MOLT-4 [14]): 1.77 µM | LC50 (MOLT-4 [14]): > 100 µM | TGI (MOLT-4 [14]): 6.27 µM | growth at 1 µM (Malme-3M): 101% | growth at 1 µM (SW-620): 89% | growth at 1 µM (OVCAR-8): 93% | GI50 (HCC 2998): 8.87 µM | LC50 (50% lethal concentration) (HCC 2998): 58.2 µM | TGI (HCC 2998): 23.5 µM | growth at 0.01 µM (MDA-MB-435): 97% | GI50 (HCT-116 [15]): 2.41 µM | LC50 (concentration killing 50% of cells) (HCT-116 [15]): 39.1 µM | TGI (HCT-116 [15]): 7.67 µM | growth at 100 µM (SK-MEL-2): -70% | growth at 0.01 µM (MOLT-4 [16]): 98% | growth at 100 µM (NCI-H23): -39% | growth at 1 µM (CCRF-CEM): 94% | GI50 (A498): 4.36 µM | LC50 (A498): 69 µM | TGI (A498): 24.1 µM | growth at 1 µM (KM12 [17]): 94% | growth at 0.01 µM (HCT-116 [18]): 99%

C=CCn1c(C)nc2cc(Nc3nc(Nc4ccc5nc(C)n(CC=C)c5c4)c4ccccc4n3)ccc21
GI50 (NCI-H522): 0.171 µM | TGI (NCI-H522): 0.332 µM | GI50 (NCI-H460 [1]): 0.22 µM | growth at 1 µM (UACC-62): 66% | growth at 100 µM (DU-145): -98% | growth at 1 µM (SK-MEL-5 [2]): 78% | growth at 0.1 µM [3]: 86% | growth at 100 µM (HOP-92 [4]): -84% | GI50 (MDA-MB-468): 0.216 µM | LC50 (concentration killing 50% of cells) (MDA-MB-468): > 100 µM | TGI (MDA-MB-468): 0.578 µM | growth at 1 µM (IGROV-1): 82% | growth at 1 µM (SN12C [5]): 65% | GI50 (HL-60(TB)): 1.78 µM | TGI (HL-60(TB)): 3.65 µM | growth at 1 µM (BT-549): 93% | growth at 0.01 µM (SK-MEL-5 [6]): 100% | growth at 0.1 µM (SK-MEL-5 [7]): 94% | growth at 0.1 µM (COLO 205): 101% | growth at 100 µM (NCI-H460 [8]): 1% | growth at 0.01 µM (PC-3 [9]): 98% | growth at 1 µM (T47D): -4% | GI50 (HOP-92 [10]): 0.78 µM | LC50 (HOP-92 [10]): 4.69 µM | TGI (HOP-92 [10]): 2.08 µM | growth at 1 µM (HCT-15): 12% | growth at 0.1 µM (SN12C [11]): 92% | growth at 0.1 µM (SK-OV-3): 106% | growth at 0.01 µM (KM12 [12]): 96% | growth at 1 µM (PC-3 [13]): 1% | GI50 (MOLT-4 [14]): 0.229 µM | LC50 (MOLT-4 [14]): > 100 µM | TGI (MOLT-4 [14]): 0.629 µM | growth at 1 µM (Malme-3M): 120% | growth at 1 µM (SW-620): -69% | growth at 1 µM (OVCAR-8): -11% | GI50 (HCC 2998): 1.2 µM | LC50 (50% lethal concentration) (HCC 2998): 5.03 µM | TGI (HCC 2998): 2.45 µM | growth at 0.01 µM (MDA-MB-435): 97% | GI50 (HCT-116 [15]): 0.214 µM | growth at 100 µM (SK-MEL-2): -17% | growth at 0.01 µM (MOLT-4 [16]): 98% | growth at 100 µM (NCI-H23): -28% | growth at 1 µM (CCRF-CEM): -14% | GI50 (A498): 1.66 µM | LC50 (A498): 5.5 µM | TGI (A498): 3.03 µM | growth at 1 µM (KM12 [17]): -40% | growth at 0.01 µM (HCT-116 [18]): 106%
